Laboratory results published in publication PMC11801377, “A uniquely efficacious type of CFTR corrector with complementary mode of action” (Science Advances, 2024).

What was measured:
F508del-CFTR = F508del-CFTR (Homo sapiens, UniProt P13569, DEL508-508); assay: Immunofluorescence confocal microscopy of CFTR localization in CFBE41o- cells; format: cell-based; details: CFBE cells, 24 hours; 2 μM IDOR-3, 2 μM IDOR-4, 10 μM other correctors
Description: CFBE-WT-CFTR and CFBE-F508del-CFTR cells were seeded at 10,000 cells per well onto FNC-coated eight-well chamber slides for a few hours and incubated with fixed concentrations of correctors or corresponding vehicle for 24 hours. Then, cells were washed once with PBS, fixed with 3% paraformaldehyde (37°C, 10 min) in PBS, washed twice with PBS, and then blocked with 10% FBS and 0.1% saponin in PBS (blocking buffer) for 1 hour at room temperature. Cells were then stained with mouse monoclonal anti-CFTR antibody 570 (1:200 in above blocking buffer; Cystic Fibrosis Foundation) and rabbit polyclonal anti–ZO-1 antibody (1:200; Thermo Fisher Scientific #40-2200) for 2 hours at room temperature and then washed three times in blocking buffer, followed by the addition of secondary antibodies in blocking buffer [goat-anti-rabbit-IgG-Alexa Fluor 488 (Thermo Fisher Scientific #A11034) and goat-anti-mouse-IgG-Alexa Fluor 568 (Thermo Fisher Scientific #A11031) both 1:200] and Hoechst 33342 (2 μg/ml from 10 mg/ml stock, Thermo Fisher Scientific #H3570). After 30 min at room temperature, cells were washed three times with blocking buffer and two times with PBS and mounted. Images were taken with fixed settings using the Leica confocal microscope TCS SP5 and the 63× objective. Z-stacks of 10 slices (0.9-μm distance) were taken and fused into one image by maximal intensity projection.

[1] = biological target: T1, F508del-CFTR-G550E.R553M.R555K (3TS) (Homo sapiens, UniProt P13569, DEL508-508/G550E/R553M/R555K); assay: CFTR immunoblotting in HEK-TREx cells expressing thermostabilized F508del-CFTR (3TS); format: cell-based; details: 48 hours, IDOR-3 2 μM, IDOR-4 0.4 μM, TEZ 2 μM, ELX 0.4 μM
T1 construct: expressed in transfected cells; host or cells: T-REx HEK293
T1 sequence (P13569 with tags, fused parts or gaps DEL508-508/G550E/R553M/R555K): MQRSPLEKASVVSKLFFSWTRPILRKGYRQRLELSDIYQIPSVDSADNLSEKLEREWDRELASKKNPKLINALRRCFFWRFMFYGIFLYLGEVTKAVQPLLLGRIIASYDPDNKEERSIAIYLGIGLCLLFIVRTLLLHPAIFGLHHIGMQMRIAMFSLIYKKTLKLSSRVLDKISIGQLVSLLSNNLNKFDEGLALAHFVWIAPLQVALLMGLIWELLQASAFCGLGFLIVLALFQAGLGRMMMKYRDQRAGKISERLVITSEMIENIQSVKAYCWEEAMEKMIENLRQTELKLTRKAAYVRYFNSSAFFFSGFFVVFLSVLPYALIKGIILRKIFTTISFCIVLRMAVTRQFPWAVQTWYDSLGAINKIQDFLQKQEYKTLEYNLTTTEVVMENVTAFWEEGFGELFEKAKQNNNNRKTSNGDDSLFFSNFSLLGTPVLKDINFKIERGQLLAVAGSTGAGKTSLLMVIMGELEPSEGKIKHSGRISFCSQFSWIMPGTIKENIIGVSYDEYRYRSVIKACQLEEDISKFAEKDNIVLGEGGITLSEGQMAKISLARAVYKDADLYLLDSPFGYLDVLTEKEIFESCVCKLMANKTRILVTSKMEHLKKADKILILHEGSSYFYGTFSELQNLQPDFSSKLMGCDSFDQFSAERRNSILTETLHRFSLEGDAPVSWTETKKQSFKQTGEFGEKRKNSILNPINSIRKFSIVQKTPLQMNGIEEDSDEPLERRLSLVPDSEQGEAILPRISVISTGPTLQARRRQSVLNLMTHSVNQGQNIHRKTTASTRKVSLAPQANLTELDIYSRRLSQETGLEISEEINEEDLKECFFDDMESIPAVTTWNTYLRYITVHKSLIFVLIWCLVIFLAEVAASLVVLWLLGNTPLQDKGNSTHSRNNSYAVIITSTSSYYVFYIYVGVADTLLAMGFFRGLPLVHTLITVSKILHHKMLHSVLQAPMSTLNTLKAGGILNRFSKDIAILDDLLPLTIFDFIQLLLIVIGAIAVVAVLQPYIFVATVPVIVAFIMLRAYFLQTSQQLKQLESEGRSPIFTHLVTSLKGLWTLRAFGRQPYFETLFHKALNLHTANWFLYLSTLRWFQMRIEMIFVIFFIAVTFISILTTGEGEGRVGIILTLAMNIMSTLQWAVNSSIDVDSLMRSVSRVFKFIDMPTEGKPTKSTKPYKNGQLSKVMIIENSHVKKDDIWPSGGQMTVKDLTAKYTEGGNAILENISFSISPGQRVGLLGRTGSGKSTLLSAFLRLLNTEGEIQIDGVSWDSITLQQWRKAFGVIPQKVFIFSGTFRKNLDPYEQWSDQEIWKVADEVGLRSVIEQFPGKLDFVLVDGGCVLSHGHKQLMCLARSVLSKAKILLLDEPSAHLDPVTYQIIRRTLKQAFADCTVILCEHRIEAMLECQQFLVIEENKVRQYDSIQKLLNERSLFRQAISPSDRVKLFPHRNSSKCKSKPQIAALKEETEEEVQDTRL
Source text: The human CFTR expressing HEK cell pools with the mutations described below were generated by integrase-mediated homologous recombination of the CFTR sequence into the T-REx HEK293 background (Thermo Fisher Scientific). This expression system allows the tetracycline-inducible expression of genes of interest from one defined insertion site. Parental T-REx-HEK293 cells were cultivated in growth medium: Dulbecco’s modified Eagle’s medium + GlutaMAX-I (#31966, Life Technologies), 10% dialyzed FBS (Gibco, #26400), penicillin (100 U/ml), streptomycin (100 μg/ml), hygromycin B (0.1 mg/ml; Life Technologies), blasticidin (5 μg/ml; Invitrogen, #R210-01), and 0.1 mM nonessential amino acid solution (Invitrogen, #11140-035). Recombinant T-REx-HEK-CFTR cells were generated by lipofectamine transfection (Life Technologies) of plasmids containing mutated versions of CFTR (RefSeq NM_000492) and then cultivated in selection medium [growth medium containing Geneticin (1 mg/ml) (Invitrogen, #10131-027) instead of hygromycin]. The plasmid constructs were synthetized by GENEART (Thermo Fisher Scientific) and designed with the WT CFTR intron 5 to 6 (880 nucleotides) to prevent leaky expression issues during the cloning process in bacteria. For evaluation of corrector efficacies on second-site suppressor mutants, the following mutations were introduced into the CFTR.F508del gene sequence: G550E.R553M.R555K and G550E.R553M.R555K.R1070W. The following plasmids expressing different truncated versions of CFTR.F508del gene were generated: K381X, delF508-M837X, delF508-E1172X, and M837-L1480. For the evaluation of different binding sites by site-directed mutagenesis, the following mutations were introduced individually into the CFTR.F508del gene: del14-21, K14A, K14A.R80V, K14A.Y84F, L15W, R1102A, and L195W. Deletion of the peptide stretching amino acids 14 to 21 was also introduced into truncated K381X: del14-21.K381X. […]

Sequence of F508del-CFTR (P13569 with tags, fused parts or gaps DEL508-508): as the sequence (P13569 with tags, fused parts or gaps DEL508-508/G550E/R553M/R555K) above, with E549G, M552R, K554R counted along it

Compound | F508del-CFTR localization (plasma membrane vs intracellular) (F508del-CFTR) | improvement of C-band expression after introduction of 3TS mutations [1]
Cc1nn(C)cc1S(=O)(=O)NC(=O)c1ccc(-n2ccc(OCC(C)(C)C(F)(F)F)n2)nc1N1C[C@@H](C)CC1(C)C [ELX, elexacaftor] | mainly intracellular CFTR staining | ~ 4 fold
COc1cc(CCNC(=O)C2CC(=O)N(C)C(CC(C)C)C(=O)N3CCCCC3C(=O)NC(Cc3ccccc3)COc3ccc4ncc(F)cc4c3C(=O)N2)on1 (stereo not drawn) [IDOR-3] | closely resembled the localization of WT-CFTR | ~ 1.5 fold
CC(C)(CO)c1cc2cc(NC(=O)C3(c4ccc5c(c4)OC(F)(F)O5)CC3)c(F)cc2n1C[C@@H](O)CO [TEZ, tezacaftor] | mainly intracellular CFTR staining | ~ 4 fold
